Measured values reported in patent US20250215101A1, “DR5 Agonist and PLK1 Inhibitor or CDK Inhibitor Combination Therapy” (Inhibrx Biosciences, Inc., priority 2022, published 2025).

Legend:
Assay in all cases: Cytotoxicity assay, pancreatic cell line panel, onvansertib +/- 1 nM INBRX-109
Assay type in all cases: cell-based
Capan-2 = settings: Homo sapiens, Capan-2, Capan-2
Protocol: (§1) Monolayer cultures of each cell line were harvested for compound screening as detailed below.
(§2) Also on day 2, test and control articles were added.
(§3) On day 4, viability measurements were taken. […] Data was graphed in GraphPad Prism 9.
(§4) The results for a panel of colorectal cancer cell lines are shown in Table 3 and FIGS. 4-6, and the results for a panel of pancreatic cell lines are shown in Table 4 and FIGS. 7 and 8.

HPAF-II = settings: for EC50: Homo sapiens
Protocol: as §1, §2, §3, §4

HuP-T4 = settings: for EC50: Homo sapiens, HuP-T4, HuP-T4; for Max Cytotox at 600 nM: HuP-T4
Protocol: as §1, §2, §3, §4

KP4 = settings: for EC50: Homo sapiens, KP-4, KP4; for Max Cytotox at 600 nM: KP4
Protocol: as §1, §2, §3, §4

MIA PaCa-2 = settings: for EC50: Homo sapiens, MIA PaCa-2, MIA PaCa-2; for Max Cytotox at 600 nM: MIA PaCa-2
Protocol: as §1, §2, §3, §4

PANC-1 = settings: for EC50: Homo sapiens, PANC-1, PANC-1; for Max Cytotox at 600 nM: PANC-1
Protocol: as §1, §2, §3, §4

PL45 = settings: for EC50: PL45, PL45; for Max Cytotox at 600 nM: PL45
Protocol: as §1, §2, §3, §4

PSN-1 = settings: for EC50: Homo sapiens, PSN1, PSN-1; for Max Cytotox at 600 nM: PSN-1
Protocol: as §1, §2, §3, §4

Panc 03.27 = settings: for EC50: Homo sapiens, PANC-03-27, Panc 03.27; for Max Cytotox at 600 nM: Panc 03.27
Protocol: as §1, §2, §3, §4

Panc 05.04 = settings: for EC50: Panc 05.04, Panc 05.04; for Max Cytotox at 600 nM: Panc 05.04
Protocol: as §1, §2, §3, §4

Panc 10.05 = settings: for EC50: Homo sapiens, Panc1005, Panc 10.05; for Max Cytotox at 600 nM: Panc 10.05
Protocol: as §1, §2, §3, §4

SU.86.86 = settings: for EC50: Homo sapiens, SU.86.86, SU.86.86; for Max Cytotox at 600 nM: SU.86.86
Protocol: as §1, §2, §3, §4

SW-1990 = settings: for EC50: Homo sapiens, SW1990, SW-1990; for Max Cytotox at 600 nM: SW-1990
Protocol: as §1, §2, §3, §4

Which results are given for `CN1CCN(c2ccc(OC(F)(F)F)c(Nc3ncc4c(n3)-c3c(c(C(N)=O)nn3CCO)CC4)c2)CC1` [Onvansertib]?
EC50 (Capan-2; onvansertib + 1 nM INBRX-109): 134 nM; EC50 (Capan-2; onvansertib only): 150 nM; EC50 (HPAF-II; onvansertib + 1 nM INBRX-109): 51.9 nM; EC50 (HPAF-II; onvansertib only): 63.3 nM; Max Cytotox at 600 nM (HPAF-II; onvansertib + 1 nM INBRX-109): 68.2%; Max Cytotox at 600 nM (HPAF-II; onvansertib only): 27.2%; EC50 (HuP-T4; onvansertib + 1 nM INBRX-109): 35.1 nM; EC50 (HuP-T4; onvansertib only): 138 nM; Max Cytotox at 600 nM (HuP-T4; onvansertib + 1 nM INBRX-109): 85.3%; Max Cytotox at 600 nM (HuP-T4; onvansertib only): 33.7%; EC50 (KP4; onvansertib + 1 nM INBRX-109): 82.4 nM; EC50 (KP4; onvansertib only): 105 nM; Max Cytotox at 600 nM (KP4; onvansertib + 1 nM INBRX-109): 97.8%; Max Cytotox at 600 nM (KP4; onvansertib only): 74.7%; EC50 (MIA PaCa-2; onvansertib + 1 nM INBRX-109): 81.3 nM; EC50 (MIA PaCa-2; onvansertib only): 179 nM; Max Cytotox at 600 nM (MIA PaCa-2; onvansertib + 1 nM INBRX-109): 96.4%; Max Cytotox at 600 nM (MIA PaCa-2; onvansertib only): 67.0%; EC50 (PANC-1; onvansertib + 1 nM INBRX-109): 121 nM; EC50 (PANC-1; onvansertib only): 152 nM; Max Cytotox at 600 nM (PANC-1; onvansertib + 1 nM INBRX-109): 87.2%; Max Cytotox at 600 nM (PANC-1; onvansertib only): 36.2%; EC50 (PL45; onvansertib + 1 nM INBRX-109): 68.1 nM; EC50 (PL45; onvansertib only): 83.6 nM; Max Cytotox at 600 nM (PL45; onvansertib + 1 nM INBRX-109): 82.2%; Max Cytotox at 600 nM (PL45; onvansertib only): 56.5%; EC50 (PSN-1; onvansertib + 1 nM INBRX-109): 63 nM; EC50 (PSN-1; onvansertib only): 85.3 nM; Max Cytotox at 600 nM (PSN-1; onvansertib + 1 nM INBRX-109): 98.0%; Max Cytotox at 600 nM (PSN-1; onvansertib only): 83.2%; EC50 (Panc 03.27; onvansertib + 1 nM INBRX-109): 90 nM; EC50 (Panc 03.27; onvansertib only): 122 nM; Max Cytotox at 600 nM (Panc 03.27; onvansertib + 1 nM INBRX-109): 87.5%; Max Cytotox at 600 nM (Panc 03.27; onvansertib only): 36.7%; EC50 (Panc 05.04; onvansertib + 1 nM INBRX-109): 61.1 nM; EC50 (Panc 05.04; onvansertib only): 205 nM; Max Cytotox at 600 nM (Panc 05.04; onvansertib + 1 nM INBRX-109): 97.4%; Max Cytotox at 600 nM (Panc 05.04; onvansertib only): 44.4%; EC50 (Panc 10.05; onvansertib + 1 nM INBRX-109): 81.7 nM; EC50 (Panc 10.05; onvansertib only): 81.9 nM; Max Cytotox at 600 nM (Panc 10.05; onvansertib + 1 nM INBRX-109): 83.3%; Max Cytotox at 600 nM (Panc 10.05; onvansertib only): 47.2%; EC50 (SU.86.86; onvansertib + 1 nM INBRX-109): 91.4 nM; EC50 (SU.86.86; onvansertib only): 629 nM; Max Cytotox at 600 nM (SU.86.86; onvansertib + 1 nM INBRX-109): 98.9%; Max Cytotox at 600 nM (SU.86.86; onvansertib only): 30.5%; EC50 (SW-1990; onvansertib + 1 nM INBRX-109): 598 nM; EC50 (SW-1990; onvansertib only): 700 nM; Max Cytotox at 600 nM (SW-1990; onvansertib + 1 nM INBRX-109): 68.7%; Max Cytotox at 600 nM (SW-1990; onvansertib only): 13.4%
